# Laboratory results from PubChem BioAssay AID624254 (Broad Institute, 2012).
# Active and inactive are the calls of the source. The rule behind the calls is not given here.
# Test: Luciferase light induction in v cholerae bh1651, agonist dose response, confirmatory (AID 624254)
# Settings: V. cholerae BH1651 luxOD47E, luciferase light induction, 6 h; at 50 µM (top of the series)
row,SMILES,activation (light increase)
1,O=C(Nc1nnc(C2CC2)s1)c1cccc(S(=O)(=O)N2CCc3ccccc32)c1,inactive
2,O=C(NCCOc1ccc(Cl)cc1)c1ccco1,inactive
3,C=CCn1c(=O)c(C(=O)NC(C)c2ccccc2)c(O)c2ccccc21 (centres undefined),inactive
4,Cc1ccc(S(=O)(=O)Nc2cc(C(=O)NCCN(C)C)ccc2N2CCCCC2)cc1,inactive
5,C[C@@H]1CN([C@H](C)CO)C(=O)c2cccc(NC(=O)Nc3ccc4c(c3)OCO4)c2O[C@H]1CN(C)S(=O)(=O)c1ccccc1,inactive
6,CC1CCN(c2ccccc2NC(=O)c2cc3ccccc3o2)CC1,inactive
7,Cc1cc(COc2ccccc2O)on1,inactive
8,COc1ccc(NC(=O)C(=O)NCC2CCCN2S(=O)(=O)c2ccc(C)cc2)cc1 (centres undefined),inactive
9,CCN(CC(=O)NCc1ccc(Cl)cc1)C(=O)CSc1ccccc1,inactive
10,CCOc1ccc(S(=O)(=O)Nc2ccc(C(=O)NCC(c3ccco3)N3CCCCC3)cc2)cc1 (centres undefined),inactive
11,CC1CCCN(C(=O)c2ccc3c(=O)n(Cc4ccc5c(c4)OCO5)c(=S)[nH]c3c2)C1 (centres undefined),inactive
12,COc1ccc(OCc2nnc3n2N=C(c2ccc(OC)cc2)CS3)cc1,inactive
13,COC(=O)Nc1ccc(S(=O)(=O)NCCO)cc1,inactive
14,O=C(OCc1cc(=O)n2ccsc2n1)c1ccc(OC(F)F)cc1,inactive
15,COc1ccccc1NC(=O)COC(=O)c1ccc2c(c1)OCCO2,inactive
16,CCS(=O)(=O)N1CCN(C(=O)CCC2CCCC2)CC1,inactive
17,CC(OC(=O)c1ccc(-n2cnnn2)cc1)C(=O)N(C)c1ccccc1 (centres undefined),inactive
18,Cc1onc(-c2ccccc2)c1C(=O)n1cccn1,inactive
19,COc1cccc(Nc2nc(NCCO)c3ccccc3n2)c1,inactive
20,O=C(c1ccccc1)N1CCC(c2nc(-c3ccc(S(=O)(=O)N4CCOCC4)cc3)no2)CC1,inactive
21,O=C(Nc1ccc(S(=O)(=O)Nc2ncccn2)cc1)C1CC(=O)N(c2ccccc2)C1 (centres undefined),inactive
22,CCOCCCNC(=O)C(NC(=O)c1cnccn1)c1ccc(C)cc1 (centres undefined),inactive
23,CCCCn1c(=O)[nH]c(=O)c2c1nc(COc1ccc(C#N)cc1)n2CCC,inactive
24,Cn1nc(-c2ccc(OCC(=O)NCC3CCCO3)cc2)c2ccccc2c1=O (centres undefined),inactive
25,CCOC(=O)CNc1c(-c2ccc(Cl)cc2)nc2cnccn12,inactive

row,SMILES,activation (light increase)
1,Cc1ccc(C)c(N2CCN(C(c3ccc(N(C)C)cc3)c3nnnn3C(C)(C)C)CC2)c1 (centres undefined),inactive
2,CCc1ccc(OCCNC(=O)c2cccs2)cc1,inactive
3,C[C@@H]1CN([C@@H](C)CO)C(=O)c2cccc(NC(=O)C3CC3)c2O[C@@H]1CN(C)S(=O)(=O)c1cccs1,inactive
4,COc1ccccc1CNC(=O)c1ccc(S(=O)(=O)N(C)c2ccccc2)cc1,inactive
5,Cn1c(=O)oc2cc(S(=O)(=O)N3CCN(c4ccc(F)cc4)CC3)ccc21,inactive
6,COC(C(=O)Nc1ccccc1C(=O)N1CCOCC1)c1ccccc1 (centres undefined),inactive
7,CCCS(=O)(=O)N1CCCC(C(=O)NCCCN(C)c2ccccc2)C1 (centres undefined),inactive
8,CCOCCCNC(=O)C(NC(=O)CNC(=O)c1ccccc1)c1ccccc1 (centres undefined),inactive
9,O=C(COC(=O)c1ccc(Cl)nc1)Nc1ccc2ccccc2c1,inactive
10,CC(=O)Nc1ccc(NC(=O)c2ccccc2C)cc1,inactive
11,CCCN1CCN(C(=O)CCCNC(=O)Cn2cnc3sc(C)c(C)c3c2=O)CC1,inactive
12,CCCc1cc(Nc2ccccc2OCC)n2ncnc2n1,inactive
13,CC(C)CCOc1cccc(OCC(=O)N(C)C2CCS(=O)(=O)C2)c1 (centres undefined),inactive
14,CCC(=O)c1coc2ccc(O)cc12,inactive
15,O=c1[nH]c2ccccc2n1Cc1ccc(Cl)cc1,inactive
16,CN(Cc1cn[nH]c1-c1cc2ccccc2o1)CC1CCOCC1,inactive
17,O=c1c2cc(N3CCOCC3)ccc2[nH]c(=S)n1CC1CCCO1 (centres undefined),inactive
18,CC(C)Oc1ccc(OCCCN2CCCCCC2)cc1,inactive
19,CCN1CCN(C(=O)c2ccc(COc3ccc(Cl)cc3)o2)CC1,inactive
20,COc1ccc(S(=O)(=O)Nc2ccc(S(=O)(=O)N3CCOCC3)cc2)cc1C,inactive
21,Cc1cccc(NS(=O)(=O)c2ccc(Oc3ccccc3)cc2)n1,inactive
22,COc1ccc(CC(=O)N2CCC(Nc3nc4ccccc4n3Cc3ccc(F)cc3)CC2)cc1,inactive
23,CC(=O)Nc1ccc(NS(=O)(=O)c2cn(C)cn2)cc1,inactive
24,Cc1ccc(C)c(C(=O)CN2C(=O)NC3(CCCCCC3)C2=O)c1,inactive
25,CCCn1nnnc1NCc1ccc(SC)cc1,inactive

row,SMILES,activation (light increase)
1,COc1ccc(-n2c(COc3ccccc3)nnc2SCc2ccc(C#N)cc2)cc1,inactive
2,O=C(COC(=O)c1cc(Cl)ccc1Cl)NC1CCCC1,inactive
3,COCc1nnc(NS(=O)(=O)c2ccc(Br)cc2)s1,inactive
4,Cc1ccc(CN(Cc2cc3cc(C)ccc3[nH]c2=O)C(=O)N2CCOCC2)cc1,inactive
5,CC(=O)c1cccc(NC(=O)COC(=O)Cc2ccc(Cl)cc2)c1,inactive
6,COc1cccc(-c2nc(OC(C)C)c3ccccc3n2)c1,inactive
7,CCOC(=O)C1=C(C)NC(SC)=NC1c1ccc(OC)cc1 (centres undefined),inactive
8,CSc1ccccc1NC(=O)COc1ccc(S(=O)(=O)N2CCCC2)cc1,inactive
9,CCCOc1cc(C)c(S(=O)(=O)NCCOC)cc1C,inactive
10,CCOC(=O)CSc1nc(C)cc(C)c1C#N,inactive
11,O=S(=O)(Nc1ccccn1)c1ccccc1,inactive
12,CCCCOCC(O)CN1CCN(C(C)=O)CC1 (centres undefined),inactive
13,COc1ccc(N2CCN(CC(=O)Nc3c(C)cc(C)cc3C)CC2)cc1,inactive
14,COc1ccc2c(c1OC)C(=O)N(c1nccs1)C2,inactive
15,O=C(CN1C(=O)COc2ccccc21)c1ccc(Cl)cc1,inactive
16,O=C(OC1CCN(c2ncc(C(F)(F)F)cc2Cl)CC1)c1ccc(Cl)cc1,inactive
17,COc1ccc(CCNC(=O)c2ccc(Cl)cc2Cl)cc1,inactive
18,COc1ccc(NS(=O)(=O)c2cccc(C(=O)N3CCCC(C)C3)c2)cc1 (centres undefined),inactive
19,CCCS(=O)(=O)N1CCCC(C(=O)NCc2ccc(C)cc2)C1 (centres undefined),inactive
20,CCOC(=O)c1sc2cc([N+](=O)[O-])cc(SCCO)c2c1N,inactive
21,Cc1ccc(C)c(N(C(=O)Cn2nnc(-c3cccs3)n2)C(C(=O)NC2CC2)c2ccc(C)o2)c1 (centres undefined),inactive
22,CCc1ccc(C(=O)OCC(=O)NC2CCCC2)cc1,inactive
23,Cc1nnc(NC(=O)c2cccc(S(=O)(=O)N3CCc4ccccc43)c2)s1,inactive
24,Cn1cnc(S(=O)(=O)Nc2ccc(Oc3ccccc3)cc2)c1,inactive
25,O=C(COC(=O)CNC(=O)c1ccco1)NCCN1C(=O)CSC1=O,inactive

row,SMILES,activation (light increase)
1,COC(=O)c1[nH]c2ccc(C)cc2c1NC(=O)Nc1ccc(OC)cc1,inactive
2,O=C(COc1cccc(Cl)c1)Nc1ccccc1N1CCCCC1,inactive
3,Cn1cnc(S(=O)(=O)Nc2ccc(OC(F)(F)F)cc2)c1,inactive
4,CCOc1ccc(/C(O)=C2/C(=O)C(=O)N(CCOCCO)C2c2ccccn2)cc1 (centres undefined),inactive
5,COc1cc(NC(=O)c2ccccc2)c(OC)cc1NC(=O)CN1C(=O)N(C)C2(CCCCC2)C1=O,inactive
6,CCOC(=O)CC(=O)Nc1nnc(C(C)C)s1,inactive
7,COc1ccc2[nH]c(=O)c(CNc3ccc(C)c(C)c3)cc2c1,inactive
8,Cc1nn(-c2ccccc2)c(C)c1NC(=O)COC(=O)c1cccc(OC(F)F)c1,inactive
9,Cc1noc(C)c1NC(=O)Nc1cccc2c1O[C@@H](CN(C)S(=O)(=O)c1cccs1)[C@H](C)CN([C@@H](C)CO)C2=O,inactive
10,CC(C)N1CCc2c(sc(NC(=O)c3ccc4ccccc4c3)c2C(N)=O)C1,inactive
11,CCCCN(C)CCNC(=O)c1ccc2c(c1)NC(=O)C(N1CCCCC1)S2 (centres undefined),inactive
12,CCOC(=O)c1c(NC(=O)c2cccs2)sc(C)c1CC,inactive
13,Cc1ccccc1C(=O)Nc1cccc(N)c1,inactive
14,CC(C)NC(=O)c1ccc(-c2cccc(C(F)(F)F)c2)o1,inactive
15,CCCCn1nnnc1NCc1ccc(N(CC)CC)cc1,inactive
16,O=C(/C=C/c1ccc(OCCCF)cc1)NCc1ccc(Cl)cc1,inactive
17,FC(F)Oc1ccccc1NC(=S)NCc1ccco1,inactive
18,CC1(C)NC(=O)N(CCOCCOc2ccc3ccccc3c2Br)C1=O,inactive
19,COc1ccccc1CCN1CCCC(CN(C)C(=O)c2ccco2)C1 (centres undefined),inactive
20,Cc1ccc(/C=C/C(=O)OCC(=O)NCCc2ccc(S(N)(=O)=O)cc2)o1,inactive
21,CCCOC(=O)c1ccc(NC(=O)CCC(=O)OCC)cc1,inactive
22,O=C(c1cn(-c2ccccc2)nc1-c1cccs1)N1CCOCC1,inactive
23,CN(C)C(=O)CCSc1nnc(-c2ccco2)o1,inactive
24,COc1ccccc1NC(=O)COc1ccc2c(c1)OCO2,inactive
